Measurements: article PMC5218480 (PLoS ONE, 2017)

Tested on: MV-4-11 cells
Experiment: Gene expression microarray analysis (Affymetrix PrimeView) and GSEA
Format: cell-based, human
Design: RFU PODN (11730768_x_at) / Fold change /veh PODN (11730768_x_at) / RFU LINC00158 (11744669_a_at) / Fold change /veh LINC00158 (11744669_a_at) / RFU DUSP10 (11751237_a_at) / Fold change /veh DUSP10 (11751237_a_at) / RFU ID3 (11757404_x_at) / Fold change /veh ID3 (11757404_x_at) / RFU PLEKHG5 (11737974_s_at) / Fold change /veh PLEKHG5 (11737974_s_at) / RFU LRRC4B (11730491_at) / Fold change /veh LRRC4B (11730491_at) / RFU GIMAP4 (11747438_a_at) / Fold change /veh GIMAP4 (11747438_a_at) / RFU KRT8 (11758183_x_at) / Fold change /veh KRT8 (11758183_x_at) / RFU CNN1 (11734310_a_at) / Fold change /veh CNN1 (11734310_a_at) / RFU VPS37D (11726825_at) / Fold change /veh VPS37D (11726825_at) / RFU C10orf10 (11716522_x_at) / Fold change /veh C10orf10 (11716522_x_at) / RFU KIR2DL2 /// KIR2DL4 /// KIR2DL5A /// KIR2DL5B /// KIR2DS1 /// KIR2DS2 /// KIR2DS3 /// KIR2DS4 /// KIR3DL3 /// KIR3DL3 /// KIR3DS1 (11738374_at) / Fold change /veh KIR2DL2 /// KIR2DL4 /// KIR2DL5A /// KIR2DL5B /// KIR2DS1 /// KIR2DS2 /// KIR2DS3 /// KIR2DS4 /// KIR3DL3 /// KIR3DL3 /// KIR3DS1 (11738374_at) / RFU C1QL1 (11718748_at) / Fold change /veh C1QL1 (11718748_at) / RFU TMPRSS4 (11747572_a_at) / Fold change /veh TMPRSS4 (11747572_a_at) / RFU HAMP (11756126_x_at) / Fold change /veh HAMP (11756126_x_at) / RFU RNFT2 (11725882_a_at) / Fold change /veh RNFT2 (11725882_a_at) / RFU NR4A2 (11747474_a_at) / Fold change /veh NR4A2 (11747474_a_at) / RFU ABCC12 (11746883_a_at) / Fold change /veh ABCC12 (11746883_a_at) / RFU TMEM136 (11760407_x_at) / Fold change /veh TMEM136 (11760407_x_at) / RFU CLDN22 /// WWC2 (11732394_at) / Fold change /veh CLDN22 /// WWC2 (11732394_at) / RFU HLA-DPB1 (11760878_x_at) / Fold change /veh HLA-DPB1 (11760878_x_at) / RFU SPINT1 (11716480_a_at) / Fold change /veh SPINT1 (11716480_a_at) / RFU GAP43 (11754022_s_at) / Fold change /veh GAP43 (11754022_s_at) / RFU A4GNT (11735810_at) / Fold change /veh A4GNT (11735810_at) / RFU PRB3 (11715151_x_at) / Fold change /veh PRB3 (11715151_x_at) / RFU TUBB4B (11761932_at) / Fold change /veh TUBB4B (11761932_at) / RFU CAPN14 (11732068_a_at) / Fold change /veh CAPN14 (11732068_a_at) / RFU TMCC2 (11721928_a_at) / Fold change /veh TMCC2 (11721928_a_at) / RFU IRGQ (11745062_a_at) / Fold change /veh IRGQ (11745062_a_at) / RFU FAM174B (11720279_a_at) / Fold change /veh FAM174B (11720279_a_at) / RFU TMPRSS4 (11748680_a_at) / Fold change /veh TMPRSS4 (11748680_a_at) / RFU FAM212B (11763350_a_at) / Fold change /veh FAM212B (11763350_a_at) / RFU PLEKHG5 (11743358_a_at) / Fold change /veh PLEKHG5 (11743358_a_at) / RFU ZSCAN30 (11745921_a_at) / Fold change /veh ZSCAN30 (11745921_a_at) / RFU CMKLR1 (11741424_a_at) / Fold change /veh CMKLR1 (11741424_a_at) / RFU LOC101060620 /// MAPK8IP1 (11723275_at) / Fold change /veh LOC101060620 /// MAPK8IP1 (11723275_at) / RFU SPTSSB (11747773_x_at) / Fold change /veh SPTSSB (11747773_x_at) / RFU PRSS12 (11739890_at) / Fold change /veh PRSS12 (11739890_at) / RFU BIN1 (11741810_x_at) / Fold change /veh BIN1 (11741810_x_at) / RFU WNT11 (11732464_a_at) / Fold change /veh WNT11 (11732464_a_at) / RFU C10orf10 (11716521_a_at) / Fold change /veh C10orf10 (11716521_a_at) / RFU C5orf56 (11738089_at) / Fold change /veh C5orf56 (11738089_at) / RFU CYB561 (11721691_x_at) / Fold change /veh CYB561 (11721691_x_at) / RFU ANKRD19P (11752326_a_at) / Fold change /veh ANKRD19P (11752326_a_at) / RFU OR2T12 /// OR2T33 /// OR2T8 (11738714_s_at) / Fold change /veh OR2T12 /// OR2T33 /// OR2T8 (11738714_s_at) / RFU VCAN (11748164_a_at) / Fold change /veh VCAN (11748164_a_at) / RFU JSRP1 (11732532_at) / Fold change /veh JSRP1 (11732532_at) / RFU KRTAP10-11 (11738290_x_at) / Fold change /veh KRTAP10-11 (11738290_x_at) / RFU MYO3A (11730013_a_at) / Fold change /veh MYO3A (11730013_a_at) / RFU EBF3 (11725865_a_at) / Fold change /veh EBF3 (11725865_a_at) / RFU CAMK2N1 (11719241_x_at) / Fold change /veh CAMK2N1 (11719241_x_at) / RFU C5orf56 (11738088_a_at) / Fold change /veh C5orf56 (11738088_a_at) / RFU OLFML3 (11715873_a_at) / Fold change /veh OLFML3 (11715873_a_at) / RFU LOC100653217 /// NTM (11731650_a_at) / Fold change /veh LOC100653217 /// NTM (11731650_a_at) / RFU MAPK11 (11762145_a_at) / Fold change /veh MAPK11 (11762145_a_at) / RFU FIZ1 (11724087_x_at) / Fold change /veh FIZ1 (11724087_x_at) / RFU OASL (11726364_x_at) / Fold change /veh OASL (11726364_x_at) / RFU SOX15 (11748057_x_at) / Fold change /veh SOX15 (11748057_x_at) / RFU CD79A (11719716_a_at) / Fold change /veh CD79A (11719716_a_at) / RFU HIST1H1D (11736915_at) / Fold change /veh HIST1H1D (11736915_at) / RFU CASKIN2 (11723855_a_at) / Fold change /veh CASKIN2 (11723855_a_at) / RFU LOC730098 (11760151_x_at) / Fold change /veh LOC730098 (11760151_x_at) / RFU OR4N2 (11742367_at) / Fold change /veh OR4N2 (11742367_at) / RFU PRRT2 (11749266_a_at) / Fold change /veh PRRT2 (11749266_a_at) / RFU SNX32 (11753110_a_at) / Fold change /veh SNX32 (11753110_a_at) / RFU CDHR5 (11726645_a_at) / Fold change /veh CDHR5 (11726645_a_at) / RFU RCAN1 (11760418_a_at) / Fold change /veh RCAN1 (11760418_a_at) / RFU FAM167A (11723789_a_at) / Fold change /veh FAM167A (11723789_a_at) / RFU FAM26E (11764081_at) / Fold change /veh FAM26E (11764081_at) / RFU ISYNA1 (11749810_s_at) / Fold change /veh ISYNA1 (11749810_s_at) / RFU ACY1 (11761880_at) / Fold change /veh ACY1 (11761880_at) / RFU 11764098_at / Fold change /veh 11764098_at / RFU SAMD14 (11745864_x_at) / Fold change /veh SAMD14 (11745864_x_at) / RFU NPB (11741838_a_at) / Fold change /veh NPB (11741838_a_at) / RFU TMPRSS6 (11731388_a_at) / Fold change /veh TMPRSS6 (11731388_a_at) / RFU KRTAP10-2 (11738614_at) / Fold change /veh KRTAP10-2 (11738614_at) / RFU ARHGAP8 /// PRR5-ARHGAP8 (11727945_x_at) / Fold change /veh ARHGAP8 /// PRR5-ARHGAP8 (11727945_x_at) / RFU KRTAP5-7 /// NADSYN1 (11734609_at) / Fold change /veh KRTAP5-7 /// NADSYN1 (11734609_at) / RFU RASL12 (11751679_a_at) / Fold change /veh RASL12 (11751679_a_at) / RFU CDKN2B (11736163_a_at) / Fold change /veh CDKN2B (11736163_a_at) / RFU PRF1 (11729649_at) / Fold change /veh PRF1 (11729649_at) / RFU, ZNF638 /// ZNF638-IT1 / Fold change vs veh, ZNF638 /// ZNF638-IT1 / RFU, PANK3 / Fold change vs veh, PANK3 / RFU, SH3YL1 / Fold change vs veh, SH3YL1 / RFU, ZEB2 / Fold change vs veh, ZEB2 / RFU, NRIP1 / Fold change vs veh, NRIP1 / RFU, PTTG1IP / Fold change vs veh, PTTG1IP / RFU, CAPN2 / Fold change vs veh, CAPN2 / RFU, MED14 / Fold change vs veh, MED14 / RFU, SNORA58 / Fold change vs veh, SNORA58 / RFU, C1orf63 / Fold change vs veh, C1orf63 / RFU, LRRFIP1 / Fold change vs veh, LRRFIP1 / RFU, NDUFAF7 / Fold change vs veh, NDUFAF7 / RFU, SLC12A2 / Fold change vs veh, SLC12A2 / RFU, IBTK / Fold change vs veh, IBTK / RFU, ESF1 / Fold change vs veh, ESF1 / Fold change vs veh, TMEM50B / RFU, TAOK1 / Fold change vs veh, TAOK1 / RFU, ACBD3 / Fold change vs veh, ACBD3 / RFU, TMA16 / Fold change vs veh, TMA16 / RFU, RWDD3 / Fold change vs veh, RWDD3 / RFU, BCAT1 / Fold change vs veh, BCAT1 / RFU, EDEM3 / Fold change vs veh, EDEM3 / RFU, TMEM33 / Fold change vs veh, TMEM33 / RFU, WDR75 / Fold change vs veh, WDR75 / RFU, AHCTF1 / Fold change vs veh, AHCTF1 / RFU, TFRC / Fold change vs veh, TFRC / RFU, ZDHHC17 / Fold change vs veh, ZDHHC17 / RFU, NOM1 / Fold change vs veh, NOM1 / RFU, ARL8B / Fold change vs veh, ARL8B / RFU, ZBTB11 / Fold change vs veh, ZBTB11 / RFU, TAMM41 / Fold change vs veh, TAMM41 / RFU, KIAA1704 /// LOC100996395 / Fold change vs veh, KIAA1704 /// LOC100996395 / RFU, ING1 / Fold change vs veh, ING1 / RFU, TRMT61B / Fold change vs veh, TRMT61B / RFU, FUBP3 / Fold change vs veh, FUBP3 / RFU, TP53 / Fold change vs veh, TP53 / RFU, TNKS2 / Fold change vs veh, TNKS2 / RFU, ZFP14 / Fold change vs veh, ZFP14 / RFU, ACTR2 / Fold change vs veh, ACTR2 / RFU, PPP3R1 / Fold change vs veh, PPP3R1 / RFU, PIK3R1 / Fold change vs veh, PIK3R1 / RFU, HNRNPA1 / Fold change vs veh, HNRNPA1 / RFU, RNF170 / Fold change vs veh, RNF170 / RFU, ZNF28 / Fold change vs veh, ZNF28 / RFU, RNGTT / Fold change vs veh, RNGTT / RFU, OGT / Fold change vs veh, OGT / RFU, BRD1 / Fold change vs veh, BRD1 / RFU, MARS / Fold change vs veh, MARS / RFU, ZNF655 / Fold change vs veh, ZNF655 / RFU, FAHD1 / Fold change vs veh, FAHD1 / RFU, BDP1 / Fold change vs veh, BDP1 / RFU, LRRCC1 / Fold change vs veh, LRRCC1 / RFU, ARID1A / Fold change vs veh, ARID1A / RFU, ZNF146 / Fold change vs veh, ZNF146 / RFU, ZNF330 / Fold change vs veh, ZNF330 / RFU, GPN3 / Fold change vs veh, GPN3 / RFU, C9orf123 / Fold change vs veh, C9orf123 / RFU, N4BP2L2 / Fold change vs veh, N4BP2L2 / RFU, ARFIP1 / Fold change vs veh, ARFIP1 / RFU, FAM179B / Fold change vs veh, FAM179B / RFU, BCL10 / Fold change vs veh, BCL10 / RFU, UHRF1BP1L / Fold change vs veh, UHRF1BP1L / RFU, BET1 / Fold change vs veh, BET1 / RFU, CNOT2 / Fold change vs veh, CNOT2 / RFU, ZNF268 / Fold change vs veh, ZNF268 / Fold change vs veh, ZNF507 / RFU, DGCR2 / Fold change vs veh, DGCR2 / RFU, WDSUB1 / Fold change vs veh, WDSUB1 / Fold change vs veh, HSP90B1 /// MIR3652 / RFU, ADSS / Fold change vs veh, ADSS / RFU, GK / Fold change vs veh, GK / RFU, ZNF148 / Fold change vs veh, ZNF148 / RFU, TAF9 / Fold change vs veh, TAF9 / RFU, SLC1A5 / Fold change vs veh, SLC1A5 / RFU, SLMO2 / Fold change vs veh, SLMO2 / RFU, ABCC4 / Fold change vs veh, ABCC4 / RFU, LOC101060439 /// RAP1B / Fold change vs veh, LOC101060439 /// RAP1B / RFU, RFX7 / Fold change vs veh, RFX7 / RFU, GTPBP10 / Fold change vs veh, GTPBP10 / RFU, CNEP1R1 / Fold change vs veh, CNEP1R1 / RFU, BIVM-ERCC5 /// ERCC5 / Fold change vs veh, BIVM-ERCC5 /// ERCC5 / RFU, ILF3 / Fold change vs veh, ILF3 / RFU 11762660_at / Fold change /veh 11762660_at / RFU VCAN (11757783_s_at) / Fold change /veh VCAN (11757783_s_at) / RFU DDX43 (11728927_at) / Fold change /veh DDX43 (11728927_at) / RFU KRT8 (11758188_x_at) / Fold change /veh KRT8 (11758188_x_at) / RFU NKD1 (11759106_at) / Fold change /veh NKD1 (11759106_at) / RFU SRD5A1 (11742802_a_at) / Fold change /veh SRD5A1 (11742802_a_at) / RFU TPSAB1 /// TPSB2 (11721975_s_at) / Fold change /veh TPSAB1 /// TPSB2 (11721975_s_at) / RFU GSTM3 (11746129_a_at) / Fold change /veh GSTM3 (11746129_a_at) / RFU IL23R (11737362_x_at) / Fold change /veh IL23R (11737362_x_at) / RFU TMEM51 (11727254_a_at) / Fold change /veh TMEM51 (11727254_a_at) / RFU PIWIL2 (11732686_x_at) / Fold change /veh PIWIL2 (11732686_x_at) / RFU ORM1 (11744905_x_at) / Fold change /veh ORM1 (11744905_x_at) / RFU CCDC152 (11743942_at) / Fold change /veh CCDC152 (11743942_at) / RFU ECM1 (11717891_a_at) / Fold change /veh ECM1 (11717891_a_at) / RFU IL23R (11748794_a_at) / Fold change /veh IL23R (11748794_a_at) / RFU TNFAIP8L3 (11732012_x_at) / Fold change /veh TNFAIP8L3 (11732012_x_at) / RFU MBOAT4 (11741988_at) / Fold change /veh MBOAT4 (11741988_at) / RFU 11764193_at / Fold change /veh 11764193_at / RFU TMEM53 (11763286_at) / Fold change /veh TMEM53 (11763286_at) / RFU MAGEB2 (11727129_at) / Fold change /veh MAGEB2 (11727129_at) / RFU TMEM200A (11744735_a_at) / Fold change /veh TMEM200A (11744735_a_at) / RFU CCDC152 (11751479_a_at) / Fold change /veh CCDC152 (11751479_a_at) / RFU FAM211A (11726209_a_at) / Fold change /veh FAM211A (11726209_a_at) / RFU RGS16 (11746705_a_at) / Fold change /veh RGS16 (11746705_a_at) / RFU VCAN (11755009_s_at) / Fold change /veh VCAN (11755009_s_at) / RFU RHOB (11743442_s_at) / Fold change /veh RHOB (11743442_s_at) / RFU RGS16 (11720943_a_at) / Fold change /veh RGS16 (11720943_a_at) / RFU RGS16 (11720944_at) / Fold change /veh RGS16 (11720944_at) / RFU, VPS4B / Fold change vs veh, VPS4B / RFU, CREB1 / Fold change vs veh, CREB1 / RFU, DNAJC13 / Fold change vs veh, DNAJC13 / RFU, GNAQ / Fold change vs veh, GNAQ / RFU, CDK5R1 / Fold change vs veh, CDK5R1 / RFU, ZRANB3 / Fold change vs veh, ZRANB3 / RFU, CUL4A / Fold change vs veh, CUL4A / RFU, CCNY / Fold change vs veh, CCNY / RFU, UFL1 / Fold change vs veh, UFL1 / RFU, COG3 / Fold change vs veh, COG3 / RFU, DIAPH2 / Fold change vs veh, DIAPH2 / RFU, SKA2 / Fold change vs veh, SKA2 / RFU, AFF3 / Fold change vs veh, AFF3 / RFU, LMF1 / Fold change vs veh, LMF1 / RFU, IPO11 / Fold change vs veh, IPO11 / RFU, DFFB / Fold change vs veh, DFFB / RFU, FOXP1 / Fold change vs veh, FOXP1 / RFU, CARD8 / Fold change vs veh, CARD8 / RFU, STRN3 / Fold change vs veh, STRN3 / RFU, ADK / Fold change vs veh, ADK / RFU, RASSF2 / Fold change vs veh, RASSF2 / RFU, WIPF1 / Fold change vs veh, WIPF1 / RFU, LARP1B / Fold change vs veh, LARP1B / RFU, RASA1 / Fold change vs veh, RASA1 / RFU, RB1 / Fold change vs veh, RB1 / RFU, PPFIA1 / Fold change vs veh, PPFIA1 / RFU, MAT2A / Fold change vs veh, MAT2A / RFU, CCT5 / Fold change vs veh, CCT5 / RFU, WDR92 / Fold change vs veh, WDR92 / RFU, CUX1 / Fold change vs veh, CUX1 / RFU, TTC7A / Fold change vs veh, TTC7A / RFU, TMEM135 / Fold change vs veh, TMEM135 / RFU, DEPTOR / Fold change vs veh, DEPTOR / RFU, CPM / Fold change vs veh, CPM / RFU, DNAJB6 / Fold change vs veh, DNAJB6 / RFU, CACNA2D3 / Fold change vs veh, CACNA2D3 / RFU, DTX4 / Fold change vs veh, DTX4 / RFU, TFCP2 / Fold change vs veh, TFCP2 / RFU, GMCL1 /// GMCL1P1 / Fold change vs veh, GMCL1 /// GMCL1P1 / RFU, AEBP2 / Fold change vs veh, AEBP2 / RFU, SNHG1 /// SNORD22 /// SNORD25 /// SNORD26 /// SNORD27 /// SNORD28 /// SNORD29 /// SNORD31 / Fold change vs veh, SNHG1 /// SNORD22 /// SNORD25 /// SNORD26 /// SNORD27 /// SNORD28 /// SNORD29 /// SNORD31 / Fold change (Aza/veh), C12orf56 (ProbeSet 11735607_a_at) / Fold change (ACY-1035/veh), C12orf56 (ProbeSet 11735607_a_at) / Fold change (Aza/veh), FGFR1OP (ProbeSet 11751329_s_at) / Fold change (ACY-1035/veh), FGFR1OP (ProbeSet 11751329_s_at) / Fold change (Aza/veh), VPS36 (ProbeSet 11739960_a_at) / Fold change (ACY-1035/veh), VPS36 (ProbeSet 11739960_a_at) / RFU SYPL1 (11715823_x_at) / Fold change /veh SYPL1 (11715823_x_at) / RFU IGFBP7 (11715501_s_at) / Fold change /veh IGFBP7 (11715501_s_at) / RFU REEP3 (11722064_at) / Fold change /veh REEP3 (11722064_at) / RFU IGLL1 (11728026_x_at) / Fold change /veh IGLL1 (11728026_x_at): dose or concentration left out as unconfirmed
Settings: ProbeSet 11720269_a_at; LIST B

## Nc1ncn([C@@H]2O[C@H](CO)[C@@H](O)[C@H]2O)c(=O)n1 [azacitidine]
  RFU, IBTK: 763.53 RFU
